Patent US20080004290A1, “Anti-Cancer Agents” (THE UNIVERSITY OF QUEENSLAND, priority 2003, published 2008)
Read-outs that look alike come from different tables or passages of the source.

Assays:
[1] = tested on: NFF, neonatal foreskin fibroblasts; experiment: Cell survival assay (clonogenic survival, SRB), normal cells; assay type: cell-based, human; conditions: SRB
Description: (§1) The cytotoxicities of the compounds of the invention were determined by clonogenic survival of human cancer cells (MM96L, melanoma) and human normal cells (NFF, neonatal foreskin fibroblasts). Cells were incubated with the compounds at various concentrations of compound (0.01-10 μg/mL) for 24 hours, washed, and then grown for a further four days in the absence of hydroxamic acid before determining cell survival by cell count. The final readout involved staining with sulforhodamine B (SRB), a cost-effective method amenable to automation and high throughput analysis. At the technical level, “cell sensitivity” is often inferred from short term (1-2 day) observations such as apoptosis, which may not be a satisfactory model of clonogenic survival.
(§2) Cell Lines and Culture Medium. All cell lines used in this study have been described previously (Parsons et al., 1986; Todaro et al., 1980; Glenn et al., 2004). All cell lines were cultured in 10% heat-inactivated foetal calf serum (CSL, Australia) in RPMI 1640 medium supplemented with 100 U/mL penicillin, 100 μg/mL streptomycin, and 3 mM HEPES at 5% CO2, 99% humidity at 37° C. Primary human fibroblasts were obtained from neonatal foreskins and cultured in the above medium. Routine mycoplasma tests were performed using Hoechst stain^i and were always negative.
(§3) Cell Survival Assay. Cells were plated into 96-well microtitre plates at 5×10^3 cells/well, and allowed to adhere overnight. Test compounds were added to culture medium at the indicated concentrations, and plates incubated in the above conditions for 24 hours. Following this incubation period, compounds and media were removed, and replaced with fresh culture medium. Cells were then grown for a further 72 hours before assay using sulforhodamine B (SRB; Sigma, St. Louis, Mo.) as previously described. Briefly, the culture medium was removed from the 96-well microtitre plates and the plates washed twice with phosphate buffered saline (PBS), before the cells were fixed with methylated spirits for 15 minutes. The plates were then rinsed with tap water and the fixed cells stained with 50 μL/well of SRB solution (0.4% sulforhodamine B (w/v) in 1% (v/v) acetic acid) over a period of 1 hour. The SRB solution was then removed from the wells and the plates rapidly washed two times with 1% (v/v) acetic acid. Protein bound dye was then solubilised with the addition of 100 μL of 10 mM unbuffered Tris, and incubated for 15 min at 25° C. Plates were then read at 564 nm on a VERSA max tunable microplate reader (Molecular Devices, Sunnyvale, Calif.).

[2] = tested on: MM96L melanoma cells; experiment: Cell survival assay (clonogenic survival, SRB); assay type: cell-based, human; conditions: for SI (Selectivity Index = IC50 (NFF)/IC50 (MM96L)): NFF vs MM96L
Description: as §1, §2, §3

[3] = NFF normal fibroblasts, 24 h with compound, further 72 h growth, read-out: IC50 (uM) NFF
[4] = MM96L melanoma, 24 h with compound, further 72 h growth, SRB, read-out: IC50 (uM) MM96L
[5] = Homo sapiens, Fibroblast, NFF normal fibroblasts, 24 h with compound, further 72 h growth, read-out: IC50 (uM) NFF
[6] = Homo sapiens, MM96L, MM96L melanoma, 24 h with compound, further 72 h growth, SRB, read-out: IC50 (uM) MM96L
[7] = Table 5, 24 hours with compound, further growth, read-out: IC50 NFF
[8] = Table 5, 24 hours with compound, further growth, SRB, read-out: IC50 MM96L
[9] = Table 5, Selectivity Index = IC50 (NFF)/IC50 (MM96L)

Row | Structure (SMILES) | IC50 [1, 7] [µM] | IC50 [2, 8] [µM] | Selectivity [2, 9] | other results
1 | CN(C)c1ccc(C(=O)NC(CSCCCC(=O)NO)C(=O)NCc2ccc(C(=O)NC3CCCc4ccccc43)cc2)cc1 (mixture of isomers) [Example 119] |  |  |  | IC50 ([1]; Table 8, 24 hours with compound, further growth, read-out: IC50 (μM) NFF): 1.74 µM; IC50 ([2]; Table 8, 24 hours with compound, further growth, SRB, read-out: IC50 (μM) MM96): 0.93 µM; Selectivity ([2]; Table 8, IC50 (NFF)/IC50 (MM96L)): 1.9
2 | CN(C)c1ccc(C(=O)NC(CCCCCC(=O)NO)C(=O)NC2CCCc3ccccc32)cc1 (racemic) [Example 125] |  |  |  | IC50 [1, 3]: 1.81 ± 0.07 µM; IC50 [2, 4]: 0.3 ± 0.1 µM; SI (Selectivity Index = IC50 (NFF)/IC50 (MM96L)) [2]: 6.0
3 | O=C(CCCCC[C@H](NC(=O)c1ccco1)C(=O)NCc1ccccc1)NO (racemic) [Example 133] |  |  |  | IC50 [1, 5]: 4.6 ± 0.4 µM; IC50 [2, 6]: 0.2 ± 0.1 µM; IC50 ([2]; Homo sapiens, MM96L, most preferred compounds, exemplary examples, read-out: potency of IC50 against the MM96 melanoma cells): ≤ 0.5 µM; SI (Selectivity Index = IC50 (NFF)/IC50 (MM96L)) [2]: 23
4 | O=C(CCCCC[C@H](NC(=O)c1cccnc1)C(=O)NCc1ccccc1)NO (racemic) [Example 134] |  |  |  | IC50 [1, 5]: 24 ± 8 µM; IC50 [2, 6]: 9.5 ± 0.8 µM; SI (Selectivity Index = IC50 (NFF)/IC50 (MM96L)) [2]: 2.5
5 | O=C(CCCCC[C@H](NC(=O)c1ccc([N+](=O)[O-])cc1)C(=O)NCc1ccccc1)NO (racemic) [Example 135] |  |  |  | IC50 [1, 5]: 9 ± 2 µM; IC50 [2, 6]: 6 ± 1 µM; SI (Selectivity Index = IC50 (NFF)/IC50 (MM96L)) [2]: 1.5
6 | CC(C)CCNC(=O)C(CCCCCC(=O)NO)NC(=O)c1ccco1 (racemic) [Example 144] |  |  |  | IC50 [1, 3]: 4.4 ± 0.5 µM; IC50 [2, 4]: 1.5 ± 0.2 µM; SI (Selectivity Index = IC50 (NFF)/IC50 (MM96L)) [2]: 2.9
7 | O=C(CCCSC[C@H](NC(=O)c1ccc(-c2ccccc2)cc1)C(=O)NCc1ccccc1)NO [Example 25] | 2.8 ± 0.2 | 0.9 ± 0.1 | 3.1 | 
8 | Cc1cc(C)cc(C(=O)N[C@@H](CSCCCC(=O)NO)C(=O)NCc2ccccc2)c1 [Example 26] | 10.9 ± 0.9 | 2 ± 0.4 | 5.5 | 
9 | O=C(CCCSC[C@H](NC(=O)c1ccccc1C(=O)c1ccccc1)C(=O)NCc1ccccc1)NO [Example 27] | 30 ± 1 | 24 ± 3 | 1.3 | 
10 | O=C(CCCSC[C@H](NC(=O)c1ccc(F)cc1Cl)C(=O)NCc1ccccc1)NO [Example 28] | > 100 | 28 ± 3 | >3 | 
11 | O=C(CCCSC[C@H](NC(=O)c1ccc(F)cc1)C(=O)NCc1ccccc1)NO [Example 29] | 26 ± 1 | 5.2 ± 0.6 | 5.0 | 
12 | COc1cc(OC)cc(C(=O)N[C@@H](CSCCCC(=O)NO)C(=O)NCc2ccccc2)c1 [Example 30] | 4.5 ± 0.6 | 1.7 ± 0.3 | 2.6 | 
13 | O=C(CCCSC[C@H](NC(=O)c1cccc(O)c1O)C(=O)NCc1ccccc1)NO [Example 31] | 4.5 ± 0.6 | 32 ± 3 | 0.14 | 
14 | O=C(CCCSC[C@H](NC(=O)c1ccccc1[N+](=O)[O-])C(=O)NCc1ccccc1)NO [Example 32] | > 100 | 10.6 ± 0.1 | >10 | 
15 | O=C(CCCSC[C@H](NC(=O)c1cccs1)C(=O)NCc1ccccc1)NO [Example 33] | 9 ± 1 | 2.5 ± 0.2 | 3.6 | 
16 | O=C(CCCSC[C@H](NC(=O)c1ccco1)C(=O)NCc1ccccc1)NO [Example 34] | 22 ± 1 | 7.2 ± 0.2 | 3.1 | 
17 | O=C(CCCSC[C@H](NC(=O)c1cnccn1)C(=O)NCc1ccccc1)NO [Example 35] | 62 ± 5 | 19 ± 2 | 3.3 | 
18 | O=C(CCCSC[C@H](NC(=O)c1cccnc1)C(=O)NCc1ccccc1)NO [Example 36] | > 100 | 12.8 ± 0.8 | >8 | 

Row | Structure (SMILES) | IC50 [1, 7] [µM] | IC50 [2, 8] [µM] | Selectivity [2, 9] | other results
19 | O=C(CCCSC[C@H](NC(=O)c1cccc2ccccc12)C(=O)NCc1ccccc1)NO [Example 37] | 5.3 ± 0.6 | 6.3 ± 0.6 | 0.8 | 
20 | O=C(CCCSC[C@H](NC(=O)c1ccc2ccccc2c1)C(=O)NCc1ccccc1)NO [Example 38] | 1.14 ± 0.05 | 0.6 ± 0.2 | 1.9 | 
21 | O=C(CCCSC[C@H](NC(=O)c1cc2ccccc2cc1O)C(=O)NCc1ccccc1)NO [Example 39] | > 100 | 13 ± 2 | >8 | 
22 | O=C(CCCSC[C@H](NC(=O)Cc1cccc([N+](=O)[O-])c1)C(=O)NCc1ccccc1)NO [Example 41] | > 100 | 12 ± 1 | >8 | 
23 | O=C(CCCSC[C@H](NC(=O)Cc1ccc(-c2ccccc2)cc1)C(=O)NCc1ccccc1)NO [Example 42] | 21 ± 2 | 12 ± 3 | 1.8 | 
24 | O=C(CCCSC[C@H](NC(=O)C(c1ccccc1)c1ccccc1)C(=O)NCc1ccccc1)NO [Example 43] | 22 ± 2 | 9.3 ± 0.3 | 2.4 | 
25 | O=C(CCCSC[C@H](NC(=O)Cc1cccc2ccccc12)C(=O)NCc1ccccc1)NO [Example 45] | 15 ± 1 | 4.1 ± 0.7 | 3.7 | 
26 | O=C(CCCSC[C@H](NC(=O)CCc1ccccc1)C(=O)NCc1ccccc1)NO [Example 46] | 21 ± 3 | 7.4 ± 0.5 | 2.9 | 
27 | COc1ccc(CCC(=O)N[C@@H](CSCCCC(=O)NO)C(=O)NCc2ccccc2)cc1 [Example 47] | 16 ± 1 | 8 ± 1 | 2.0 | 
28 | O=C(/C=C/c1ccccc1)N[C@@H](CSCCCC(=O)NO)C(=O)NCc1ccccc1 [Example 48] | 0.8 ± 0.2 | 0.2 ± 0.1 | 4.0 | 
29 | O=C(CCCSC[C@H](NC(=O)CCCc1ccccc1)C(=O)NCc1ccccc1)NO [Example 49] | 11 ± 2 | 5 ± 1 | 2.2 | 
30 | CC(C)CCC(=O)N[C@@H](CSCCCC(=O)NO)C(=O)NCc1ccccc1 [Example 50] | 25 ± 4 | 7 ± 2 | 3.6 | 
31 | C/C=C/C(=O)N[C@@H](CSCCCC(=O)NO)C(=O)NCc1ccccc1 [Example 52] | > 100 | 11 ± 0.7 | >9 | 
32 | CC(C)=CC(=O)N[C@@H](CSCCCC(=O)NO)C(=O)NCc1ccccc1 [Example 53] | 22 ± 1 | 11 ± 1 | 2.0 | 
33 | O=C(CCCSC[C@H](NC(=O)C1CCCC1)C(=O)NCc1ccccc1)NO [Example 54] | > 100 | 21 ± 3 | >5 | 
34 | O=C(CCCSC[C@H](NC(=O)C1CC1)C(=O)NCc1ccccc1)NO [Example 55] | > 100 | 21 ± 2 | >5 | 
35 | O=C(CCCCCC(NC(=O)C(Cc1ccccc1)NC(=O)Cc1c[nH]c2ccccc12)C(=O)NCc1ccccc1)NO (centres unmarked) [Example 164] |  |  |  | IC50 [1, 3]: 9.76 µM
